Results taken from patent publication US20100179095A1, “USE OF FOLATES FOR PRODUCING A PREPARATION SUITABLE FOR PREVENTING AND TREATING INFLAMMATION AND DISEASES ASSOCIATED WITH INFLAMMATION, ESPECIALLY FOR INFLUENCING THE INFLAMMATION MARKERS CRP AND SAA” (priority 2002, published 2010).
Like-named read-outs stand apart in the source and are kept apart here.

Columns and labels:
C-reactive protein (CRP) = assay: Clinical study in haemodialysis patients: plasma CRP (immuno-nephelometry, N High Sensitivity CRP); type: in vivo, human; conditions: for CRP Median / CRP MW (mean): plasma, haemodialysis patients
Source text: (§1) For the individual patient, the values before therapy were compared, pair-wise, with those after 3 and 6 weeks of therapy.

[1] = tested on: serum amyloid A protein (SAA); assay: Clinical study in haemodialysis patients: plasma SAA (immuno-nephelometry, N Latex SAA); type: in vivo, human; conditions: for SAA MW (mean) / SAA Median: plasma, haemodialysis patients
Source text: as §1

[2] = tested on: homocysteine (total) (Hcys); assay: Clinical study in haemodialysis patients: plasma homocysteine (total); type: in vivo, human
Protocol: For the patients for whom all the measured values could be ascertained completely at any time, a “matched pair” analysis was performed in addition. For the individual patient, the values before therapy were compared, pair-wise, with those after 3 and 6 weeks of therapy.

[3] = tested on: inflammation markers CRP and SAA; conditions: haemodialysis patients, 6 weeks of folate therapy
Source text: Clinical data were obtained via the prospective, randomised double blind study described below.
141 patients with terminal renal insufficiency, who were being treated with chronic haemodialysis on 3 days each week, and who were between 24 and 90 years old, were divided randomly into 4 therapy groups according to the sex of the patient and the presence or absence of a C677T point mutation on the gene for methylene tetrahydrofolate reductase. Randomisation based on the methylene tetrahydrofolate reductase mutation was effected in order to prevent an imbalance occurring within the individual therapy groups with regard to enzyme activity and thus with regard to folic acid metabolism also. […]
The first blood sample in the study was taken before the commencement of the administration of additional vitamins. […] The following measured quantities were each determined from plasma samples from the 3 blood samples taken: • homocysteine (total) (Hcys) • total folate (Fol) • vitamin B12 (B12) • vitamin B6 (B6) • neopterin (NEOP) • creatinine (Krea) • LDL- and HDL-cholesterol (HDL-Choi, LDL-Chol) • triglyceride (TG) • C-reactive protein (CRP) • amyloid A protein (SAA) […]
CRP and SAA were both measured by means of immuno-nephelometry and tests supplied by DadeBehring (N High Sensitivity CRP and N Latex SAA assays).

[4] = 3 w vs 6 w, value after 3 weeks vs value after 6 weeks
[5] = BL vs 3 w, initial value vs value after 3 weeks
[6] = BL vs 6 w, initial value vs value after 6 weeks
[7] = BL baseline before folate therapy
[8] = BL baseline before folate therapy, basic vitamin preparation in all
[9] = after 3 weeks (3 w) of therapy, 15 mg FTHF or MTHF, 7.5 mg PGA per day plus basic vitamin preparation
[10] = after 6 weeks (6 w) of therapy, 15 mg FTHF or MTHF, 7.5 mg PGA per day plus basic vitamin preparation

Row | Structure (SMILES) | CRP matched pair analysis, significance of difference (C-reactive protein (CRP); [4]) | CRP matched pair analysis, significance of difference (C-reactive protein (CRP); [5]) | CRP matched pair analysis, significance of difference (C-reactive protein (CRP); [6]) | CRP Median (C-reactive protein (CRP); [7]) | CRP MW (mean) (C-reactive protein (CRP); [8]) | CRP Median (C-reactive protein (CRP); after 3 weeks (3 w) of therapy) | CRP MW (mean) (C-reactive protein (CRP); [9]) | CRP Median (C-reactive protein (CRP); after 6 weeks (6 w) of therapy) | CRP MW (mean) (C-reactive protein (CRP); [10]) | SAA matched pair analysis, significance of difference [1, 4] | SAA matched pair analysis, significance of difference [1, 5] | SAA matched pair analysis, significance of difference [1, 6] | SAA MW (mean) [1, 7] | SAA Median [1, 7] | SAA MW (mean) ([1]; after 3 weeks (3 w) of therapy) | SAA Median ([1]; after 3 weeks (3 w) of therapy) | SAA MW (mean) ([1]; after 6 weeks (6 w) of therapy) | SAA Median ([1]; after 6 weeks (6 w) of therapy) | Hcys matched pair analysis, significance of difference [2, 4] | Hcys matched pair analysis, significance of difference [2, 5] | other results
1 | Nc1nc2ncc(CNc3ccc(C(=O)N[C@@H](CCC(=O)O)C(=O)O)cc3)nc2c(=O)[nH]1 [PGA, folic acid] | Ø | Ø | Ø | 7 mg/L | 10 mg/L | 8 mg/L | 10 mg/L | 6 mg/L | 9 mg/L | * (p < 0.05) | Ø | Ø | 11 mg/L | 7 mg/L | 12 mg/L | 6 mg/L | 13 mg/L | 10 mg/L | Ø | * (p < 0.05) | Hcys matched pair analysis, significance of difference [2, 6]: * (p < 0.05)
2 | CN1c2c(nc(N)[nH]c2=O)NC[C@H]1CNc1ccc(C(=O)N[C@@H](CCC(=O)O)C(=O)O)cc1 (mixture of isomers) [MTHF, 5-methyl-(6R,S)-tetrahydrofolic acid] | * (p < 0.05) | * (p < 0.05) | ** (p < 0.01) | 11 mg/L | 19 mg/L | 8 mg/L | 11 mg/L | 7 mg/L | 9 mg/L | Ø | Ø | Ø | 34 mg/L | 11 mg/L | 19 mg/L | 10 mg/L | 13 mg/L | 9 mg/L | Ø | Ø | Hcys matched pair analysis, significance of difference [2, 6]: * (p < 0.05); effect on inflammation markers CRP and SAA (acute phase response), in words [3]: reduce the acute phase response; effect on inflammation markers CRP and SAA (acute phase response), in words ([3]; listed as 5-methyl-(6R,S)-tetahydrofolic acid): most pronounced decrease in inflammation markers
3 | Nc1nc2c(c(=O)[nH]1)N(C=O)[C@H](CNc1ccc(C(=O)N[C@@H](CCC(=O)O)C(=O)O)cc1)CN2 (mixture of isomers) [FTHF, 5-formyl-(6R,S)-tetrahydrofolic acid] | Ø | * (p < 0.05) | Ø | 9 mg/L | 16 mg/L | 5 mg/L | 9 mg/L | 6 mg/L | 18 mg/L | * (p < 0.05) | * (p < 0.05) | Ø | 28 mg/L | 6 mg/L | 8 mg/L | 4 mg/L | 35 mg/L | 6 mg/L | Ø | * (p < 0.05) | Hcys matched pair analysis, significance of difference [2, 6]: ** (p < 0.01)
